Earlier results in patent US20230110028A1, “OXYBATE POLYETHYLENE GLYCOL PRODRUGS” (Tris Pharma, Inc., priority 2021, published 2023).

Experiments:
[1] = not given; remark: listed apart in the source
[2] = forms gamma-butyrolactone (GBL) at pH below 7
[3] = in vivo

Row | Compound | Solubility [mg/mL] | also measured
1 | Hydroxypropyl-β-cyclodextrin | ≥600 | –
2 | O=C(O)CCCO [Sodium oxybate] | – | solubility in aqueous solutions [1]: very soluble; stability in acidic medium [2]: unstable
3 | O=C(O)CCCO [oxybate, gamma hydroxybutyrate] | – | elimination half-life [3]: 30 to 40 min
4 | Randomly methylated-β-cyclodextrin | ≥500 | –
5 | Sulfobutyl ether-β-cyclodextrin | ≥500 | –
